Test results taken from patent US20230295157A1, “3-(1H-IMIDAZOL-2-YL)-2,3,8,8A-TETRAHYDROINDOLIZIN-5(1H)-ONE DERIVATIVES USEFUL AS FACTOR XIA INHIBITORS” (JANSSEN PHARMACEUTICA NV, priority 2020, published 2023).
Like-named read-outs stand apart in the source and are kept apart here.

Experiments:
human plasma kallikrein = human plasma kallikrein (Homo sapiens (Human), UniProt P03952); experiment: Kallikrein inhibition assay (FLINT) utilizing a quenched AMC peptide substrate; assay type: biochemical; conditions: 30 min preincubation, kinetic reads over 30 min, Z-Gly-Pro-Arg-AMC substrate 50 μM; read-out: Kallikrein Kin Inh IC50
human plasma kallikrein, sequence (P03952 391-638): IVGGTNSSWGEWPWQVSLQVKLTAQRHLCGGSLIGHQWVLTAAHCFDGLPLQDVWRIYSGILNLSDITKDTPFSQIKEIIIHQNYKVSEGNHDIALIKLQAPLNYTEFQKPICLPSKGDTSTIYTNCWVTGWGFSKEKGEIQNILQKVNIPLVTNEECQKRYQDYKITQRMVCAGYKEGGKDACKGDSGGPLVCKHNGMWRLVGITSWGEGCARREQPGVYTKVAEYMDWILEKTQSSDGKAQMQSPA
human plasma kallikrein, sequence (P03952 20-390 partner): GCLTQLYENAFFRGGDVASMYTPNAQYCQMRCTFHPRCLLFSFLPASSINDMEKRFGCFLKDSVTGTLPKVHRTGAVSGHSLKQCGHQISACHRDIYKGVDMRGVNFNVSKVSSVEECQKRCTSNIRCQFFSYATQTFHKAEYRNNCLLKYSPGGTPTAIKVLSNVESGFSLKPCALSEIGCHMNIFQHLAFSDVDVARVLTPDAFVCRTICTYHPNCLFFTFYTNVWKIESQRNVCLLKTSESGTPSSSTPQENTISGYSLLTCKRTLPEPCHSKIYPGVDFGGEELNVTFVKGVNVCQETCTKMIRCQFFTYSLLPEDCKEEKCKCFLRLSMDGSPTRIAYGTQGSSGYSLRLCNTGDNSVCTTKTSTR
Method in brief: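 Fluorogenic Z-Gly-Pro-Arg-AMC cleavage (50 μM substrate, 2 nM kallikrein, Tris pH 7.5, CaCl2, BSA, CHAPS, 2% DMSO) read kinetically at 340/440 nm for 30 min after 30-min compound pre-incubation. Compounds in 11-point 3-fold series from 1 μM; percent inhibition fitted to four-parameter equation for IC50.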

Factor XIa = Factor XIa (Homo sapiens (Human), UniProt P03951); experiment: Factor XIa inhibition assay (FLINT) utilizing a fluorophore-quencher pair peptide substrate; assay type: biochemical; conditions: 30 min preincubation, kinetic reads over 30 min, read-out: FXIa Kin Inh IC50
Factor XIa, sequence (P03951 388-625): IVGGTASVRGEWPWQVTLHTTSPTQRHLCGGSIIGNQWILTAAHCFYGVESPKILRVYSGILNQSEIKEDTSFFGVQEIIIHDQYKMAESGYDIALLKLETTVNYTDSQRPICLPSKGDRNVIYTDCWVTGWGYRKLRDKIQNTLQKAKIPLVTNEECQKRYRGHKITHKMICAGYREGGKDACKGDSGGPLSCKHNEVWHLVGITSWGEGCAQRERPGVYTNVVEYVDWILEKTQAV
Factor XIa, sequence (P03951 19-387 partner): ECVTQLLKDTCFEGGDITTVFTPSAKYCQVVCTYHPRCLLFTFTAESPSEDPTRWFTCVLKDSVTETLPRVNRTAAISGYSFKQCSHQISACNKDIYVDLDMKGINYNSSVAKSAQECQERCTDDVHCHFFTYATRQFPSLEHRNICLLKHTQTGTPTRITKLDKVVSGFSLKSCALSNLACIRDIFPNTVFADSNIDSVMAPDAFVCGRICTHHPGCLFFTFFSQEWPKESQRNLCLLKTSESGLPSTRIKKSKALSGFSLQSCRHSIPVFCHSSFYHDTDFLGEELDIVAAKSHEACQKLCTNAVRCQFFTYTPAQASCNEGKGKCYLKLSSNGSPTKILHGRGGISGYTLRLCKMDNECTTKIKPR
Method in brief: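 FXIa ([…]) preincubated 30 min with compound (11-point 3-fold dilution, top 100 nM, 2% DMSO), then 15 μM quenched FXI Arg146-based peptide added; Tris pH 7.5, CaCl2, BSA, CHAPS. Fluorescence 485/520 nm read kinetically every 5 min over 30 min at RT; IC50 by 4-parameter fit.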

[1] = 5Fam-KLTRAETV-K5Tamra substrate 15 μM

| SMILES | IC50 (human plasma kallikrein) [nM] | IC50 (Factor XIa; [1]) [nM] | IC50 (Factor XIa; 5Fam-[…]-K5Tamra substrate 15 μM) [nM] |
| --- | --- | --- | --- |
| O=C1C=C(c2cc(Cl)ccc2-n2cc(C(F)(F)F)nn2)C[C@H]2CC[C@@H](c3ncc(-c4ccc5[nH]c(=O)ccc5c4)[nH]3)N12 [Example 101, 6-(2-((3S,8aR)-7-(5-chloro-2-(4-(trifluoromethyl)-1H-1,2,3-triazol-1-yl)phenyl)-5-oxo-1,2,3,5,8,8a-hexahydroindolizin-3-yl)-1H-imidazol-5-yl)quinolin-2(1H)-one] | 1.9 | 0.6 | – |
| CONC(=O)c1nccc(-c2cnc([C@@H]3CC[C@@H]4CC(c5c(-n6cnnn6)ccc(Cl)c5F)=CC(=O)N43)[nH]2)c1F [Example 103, 4-[2-[(3S,8aR)-7-[3-Chloro-2-fluoro-6-(tetrazol-1-yl)phenyl]-5-oxo-2,3,8,8a-tetrahydro-1H-indolizin-3-yl]-1H-imidazol-5-yl]-3-fluoro-N-methoxy-pyridine-2-carboxamide] | 53.1 | 1.6 | – |
| O=C(NC12CC(C1)C2)c1nccc(-c2cnc([C@@H]3CC[C@@H]4CC(c5c(-n6cnnn6)ccc(Cl)c5F)=CC(=O)N43)[nH]2)c1F [Example 104, N-(bicyclo[1.1.1]pentan-1-yl)-4-(2-((3S,8aR)-7-(3-chloro-2-fluoro-6-(1H-tetrazol-1-yl)phenyl)-5-oxo-1,2,3,5,8,8a-hexahydroindolizin-3-yl)-1H-imidazol-5-yl)-3-fluoropicolinamide] | 35.4 | 16.6 | – |
| O=C1CCCN1c1nccc(-c2cnc([C@@H]3CC[C@H]4CC(c5c(-n6cnnn6)ccc(Cl)c5F)=CC(=O)N43)[nH]2)c1F [Example 105, (3S,8aS)-7-(3-chloro-2-fluoro-6-(1H-tetrazol-1-yl)phenyl)-3-(5-(3-fluoro-2-(2-oxopyrrolidin-1-yl)pyridin-4-yl)-1H-imidazol-2-yl)-2,3,8,8a-tetrahydroindolizin-5(1H)-one] | 125 | 62.9 | – |
| O=C1CCCN1c1nccc(-c2cnc([C@@H]3CC[C@@H]4CC(c5c(-n6cnnn6)ccc(Cl)c5F)=CC(=O)N43)[nH]2)c1F [Example 106, (3S,8aR)-7-(3-chloro-2-fluoro-6-(1H-tetrazol-1-yl)phenyl)-3-(5-(3-fluoro-2-(2-oxopyrrolidin-1-yl)pyridin-4-yl)-1H-imidazol-2-yl)-2,3,8,8a-tetrahydroindolizin-5(1H)-one] | 27 | 11 | – |
| O=C1C=C(c2c(-n3cnnn3)ccc(Cl)c2F)C[C@H]2CC[C@@H](c3nc(F)c(-c4ccnc(CO)c4F)[nH]3)N12 [Example 107, (3S,8aR)-7-[3-chloro-2-fluoro-6-(tetrazol-1-yl)phenyl]-3-[4-fluoro-5-[3-fluoro-2-(hydroxymethyl)-4-pyridyl]-1H-imidazol-2-yl]-2,3,8,8a-tetrahydro-1H-indolizin-5-one] | 6.5 | 0.7 | – |
| [2H]c1nc([C@@H]2CC[C@@H]3CC(c4c(-n5cnnn5)ccc(Cl)c4F)=CC(=O)N32)[nH]c1-c1ccnc(C([2H])([2H])O)c1F [Example 113, (3S,8aR)-7-[3-Chloro-2-fluoro-6-(tetrazol-1-yl)phenyl]-3-[4-deuterio-5-[2-[dideuterio(hydroxy)methyl]-3-fluoro-4-pyridyl]-1H-imidazol-2-yl]-2,3,8,8a-tetrahydro-1H-indolizin-5-one] | 27.3 | 3.2 | – |
| O=C1OCCN1c1nccc(-c2cnc([C@@H]3CC[C@@H]4CC(c5c(-n6cnnn6)ccc(Cl)c5F)=CC(=O)N43)[nH]2)c1F [Example 114, 3-[4-[2-[(3S,8aR)-7-[3-chloro-2-fluoro-6-(tetrazol-1-yl)phenyl]-5-oxo-2,3,8,8a-tetrahydro-1H-indolizin-3-yl]-1H-imidazol-5-yl]-3-fluoro-2-pyridyl]oxazolidin-2-one] | 55.9 | 9.4 | – |
| [2H]c1nc([C@@H]2CC[C@@H]3CC(c4c(-n5cnnn5)ccc(Cl)c4F)=CC(=O)N32)[nH]c1-c1ccnc(CO)c1F [Example 117, (3S,8aR)-7-(3-chloro-2-fluoro-6-(1H-tetrazol-1-yl)phenyl)-3-(5-(3-fluoro-2-(hydroxymethyl)pyridin-4-yl)-1H-imidazol-2-yl-4-d)-2,3,8,8a-tetrahydroindolizin-5(1H)-one] | 24.8 | 2.9 | – |
| Nc1ccc(-c2cnc([C@@H]3CC[C@@H]4CC(c5cc(Cl)ccc5-n5cnnn5)=CC(=O)N43)[nH]2)c(F)n1 [Example 123, (3S,8aR)-3-[5-(6-amino-2-fluoro-3-pyridyl)-1H-imidazol-2-yl]-7-[5-chloro-2-(tetrazol-1-yl)phenyl]-2,3,8,8a-tetrahydro-1H-indolizin-5-one] | 8.6 | 0.4 | – |
| [2H]c1cc(-c2cnc([C@@H]3CC[C@@H]4CC(c5cc(Cl)ccc5-n5cnnn5)=CC(=O)N43)[nH]2)c(F)nc1N [Example 124, (3S,8aR)-3-[5-(6-amino-5-deuterio-2-fluoro-3-pyridyl)-1H-imidazol-2-yl]-7-[5-chloro-2-(tetrazol-1-yl)phenyl]-2,3,8,8a-tetrahydro-1H-indolizin-5-one] | 11.6 | 0.4 | – |
| [2H]c1cc(-c2c[nH]c([C@@H]3CC[C@@H]4CC(c5c(F)c(Cl)cc([2H])c5-n5cnnn5)=CC(=O)N43)n2)c(F)nc1N [Example 125, (3S,8aR)-3-(4-(6-amino-2-fluoropyridin-3-yl-5-d)-1H-imidazol-2-yl)-7-(3-chloro-2-fluoro-6-(1H-tetrazol-1-yl)phenyl-5-d)-2,3,8,8a-tetrahydroindolizin-5(1H)-one] | 9.6 | 0.5 | – |
| Nc1nccc(-c2cnc([C@@H]3CC[C@@H]4CC(c5c(-n6cnnn6)ccc(Cl)c5F)=CC(=O)N43)[nH]2)c1F [Example 126, (3S,8aR)-3-[5-(2-amino-3-fluoro-4-pyridyl)-1H-imidazol-2-yl]-7-[3-chloro-2-fluoro-6-(tetrazol-1-yl)phenyl]-2,3,8,8a-tetrahydro-1H-indolizin-5-one] | 4.6 | 0.5 | – |
| [2H]c1cc(Cl)c(F)c(C2=CC(=O)N3[C@H](CC[C@H]3c3nc([2H])c(-c4ccc(N)nc4F)[nH]3)C2)c1-n1cnnn1 [Example 129, (3S,8aR)-3-(5-(6-amino-2-fluoropyridin-3-yl)-1H-imidazol-2-yl-4-d)-7-(3-chloro-2-fluoro-6-(1H-tetrazol-1-yl)phenyl-5-d)-2,3,8,8a-tetrahydroindolizin-5(1H)-one] | 5.4 | – | 0.4 |
| O=C1C=C(c2c(-n3cnnn3)ccc(Cl)c2F)C[C@H]2CC[C@@H](c3ncc(-c4ccnc(C5COC5)c4F)[nH]3)N12 [Example 130, (3S,8aR)-7-(3-chloro-2-fluoro-6-(1H-tetrazol-1-yl)phenyl)-3-(5-(3-fluoro-2-(oxetan-3-yl)pyridin-4-yl)-1H-imidazol-2-yl)-2,3,8,8a-tetrahydroindolizin-5(1H)-one] | 12.7 | 3.5 | – |
| CNc1nccc(-c2cnc([C@@H]3CC[C@@H]4CC(c5c(-n6cnnn6)ccc(Cl)c5F)=CC(=O)N43)[nH]2)c1F [Example 134, (3S,8aR)-7-(3-chloro-2-fluoro-6-(1H-tetrazol-1-yl)phenyl)-3-(5-(3-fluoro-2-(methylamino)pyridin-4-yl)-1H-imidazol-2-yl)-2,3,8,8a-tetrahydroindolizin-5(1H)-one] | 1.1 | 0.4 | – |
| [2H]c1cc(-c2[nH]c([C@@H]3CC[C@@H]4CC(c5c(-n6cnnn6)ccc(Cl)c5F)=CC(=O)N43)nc2[2H])c(F)nc1N [Example 145, (3S,8aR)-3-[5-(6-amino-5-deuterio-2-fluoro-3-pyridyl)-4-deuterio-1H-imidazol-2-yl]-7-[3-chloro-2-fluoro-6-(tetrazol-1-yl)phenyl]-2,3,8,8a-tetrahydro-1H-indolizin-5-one] | 7.7 | 0.6 | – |
| [2H][C@]12CC[C@@H](c3ncc(-c4ccc(N)nc4F)[nH]3)N1C(=O)C=C(c1c(-n3cnnn3)ccc(Cl)c1F)C2 [Example 146, (3S,8aR)-3-[5-(6-amino-2-fluoro-3-pyridyl)-1H-imidazol-2-yl]-7-[3-chloro-2-fluoro-6-(tetrazol-1-yl)phenyl]-8a-deuterio-1,2,3,8-tetrahydroindolizin-5-one] | 7.3 | 0.5 | – |
| [2H]c1cc(-c2cnc([C@@H]3CC[C@@H]4CC(c5c(-n6cnnn6)ccc(Cl)c5F)=CC(=O)N43)[nH]2)c(F)nc1N [Example 147, (3S,8aR)-3-[5-(6-amino-5-deuterio-2-fluoro-3-pyridyl)-1H-imidazol-2-yl]-7-[3-chloro-2-fluoro-6-(tetrazol-1-yl)phenyl]-2,3,8,8a-tetrahydro-1H-indolizin-5-one] | 7.8 | 0.5 | – |
| [2H]c1cc(N)nc(F)c1-c1[nH]c([C@@H]2CC[C@@H]3CC(c4c(-n5cnnn5)ccc(Cl)c4F)=CC(=O)N32)nc1[2H] [Example 148, (3S,8aR)-3-[5-(6-amino-4-deuterio-2-fluoro-3-pyridyl)-4-deuterio-1H-imidazol-2-yl]-7-[3-chloro-2-fluoro-6-(tetrazol-1-yl)phenyl]-2,3,8,8a-tetrahydro-1H-indolizin-5-one] | 8.6 | 0.6 | – |
| [2H]c1nc([C@@H]2CC[C@@H]3CC(c4c(-n5cnnn5)ccc(Cl)c4F)=CC(=O)N32)[nH]c1-c1c(F)nc(N)c([2H])c1[2H] [Example 149, (3S,8aR)-3-[5-(6-amino-4,5-dideuterio-2-fluoro-3-pyridyl)-4-deuterio-1H-imidazol-2-yl]-7-[3-chloro-2-fluoro-6-(tetrazol-1-yl)phenyl]-2,3,8,8a-tetrahydro-1H-indolizin-5-one] | 7.6 | 0.5 | – |
